Laboratory results from ChEMBL document CHEMBL1255345, “Efficacies of ceftobiprole medocaril and comparators in a rabbit model of osteomyelitis due to methicillin-resistant Staphylococcus aureus” (Antimicrob Agents Chemother, 2008).
≈ marks a conversion by molar mass, not a printed value. Calls of active or inactive are those of the source. The calls are words filed in the database; no cut-off is given here.

Key:
Staphylococcus aureus [1] = assay: Antimicrobial activity against Staphylococcus aureus 168-1 isolated from osteomyelitis patient by broth macrodilution method; format: functional
[2] = Cmax in New Zealand rabbit at 20 mg/kg, sc administered every 6 hrs for 4 days measured after 1 hr post first dose by RP-HPLC/MS/MS; format: ADME, organism-based, Oryctolagus cuniculus; parameters: dose 20 mg/kg, route subcutaneous; conditions: in vivo
[3] = Cmin in New Zealand rabbit at 20 mg/kg, sc administered every 6 hrs for 4 days measured after 1 hr post first dose by RP-HPLC/MS/MS; format: ADME, organism-based, Oryctolagus cuniculus; parameters: dose 20 mg/kg, route subcutaneous; conditions: New Zealand, in vivo, read-out: Cmin
[4] = AUC in New Zealand rabbit at 20 mg/kg, sc administered every 6 hrs for 4 days measured after 1 hr post first dose by RP-HPLC/MS/MS; format: ADME, organism-based, Oryctolagus cuniculus; parameters: time < 1 hr, dose 20 mg/kg, route subcutaneous; conditions: plasma
[5] = Cmax in New Zealand rabbit at 80 mg/kg, sc administered every 6 hrs for 4 days measured after 1 hr post first dose by RP-HPLC/MS/MS; format: ADME, organism-based, Oryctolagus cuniculus; parameters: dose 80 mg/kg, route subcutaneous; conditions: in vivo
[6] = AUC in New Zealand rabbit at 80 mg/kg, sc administered every 6 hrs for 4 days measured after 1 hr post first dose by RP-HPLC/MS/MS; format: ADME, organism-based, Oryctolagus cuniculus; parameters: time < 1 hr, dose 80 mg/kg, route subcutaneous; conditions: plasma
[7] = Cmax in New Zealand rabbit at 20 mg/kg, sc administered every 6 hrs for 4 days measured 16th dose by RP-HPLC/MS/MS; format: ADME, organism-based, Oryctolagus cuniculus; parameters: dose 20 mg/kg, route subcutaneous; conditions: in vivo
[8] = Cmax in New Zealand rabbit at 80 mg/kg, sc administered every 6 hrs for 4 days measured 16th dose by RP-HPLC/MS/MS; format: ADME, organism-based, Oryctolagus cuniculus; parameters: dose 80 mg/kg, route subcutaneous; conditions: in vivo
Oryctolagus cuniculus [9] = assay: Toxicity in methicillin-resistant Staphylococcus aureus-infected New Zealand rabbit osteomyelitis model assessed as body weight at 40 mg/kg, sc administered every 6 hrs for 4 days measured on week 2 postinfection (reference value: […] +/- […] kg); format: organism-based; conditions: in vivo
Oryctolagus cuniculus [10] = assay: Toxicity in methicillin-resistant Staphylococcus aureus-infected New Zealand rabbit osteomyelitis model assessed as body weight at 40 mg/kg, sc administered every 6 hrs for 4 days measured on week 4 postinfection (reference value: […] +/- […] kg); format: organism-based; conditions: in vivo
Oryctolagus cuniculus [11] = assay: Toxicity in methicillin-resistant Staphylococcus aureus-infected New Zealand rabbit osteomyelitis model assessed as body weight at 40 mg/kg, sc administered every 6 hrs for 4 days measured on week 6 postinfection (reference value: […] +/- […] kg); format: organism-based; conditions: in vivo
Oryctolagus cuniculus [12] = assay: Toxicity in methicillin-resistant Staphylococcus aureus-infected New Zealand rabbit osteomyelitis model assessed as body weight at 40 mg/kg, sc administered every 6 hrs for 4 days measured on week 8 postinfection (reference value: […] +/- […] kg); format: organism-based; conditions: in vivo
[13] = Cmax in New Zealand rabbit osteomyelitis model at 40 mg/kg, sc administered every 6 hrs for 4 days; format: ADME, organism-based, Oryctolagus cuniculus; parameters: dose 40 mg/kg, route subcutaneous; conditions: in vivo
Staphylococcus aureus [14] = assay: Antimicrobial activity against methicillin-resistant Staphylococcus aureus infected in New Zealand rabbit osteomyelitis model assessed as improvement in rate of bone reconstruction at 40 mg/kg, sc administered every 6 hrs for 4 weeks measured on week 6 postinfection by radiographic analysis; format: functional, organism-based; parameters: dose 40 mg/kg
Staphylococcus aureus [15] = assay: Antimicrobial activity against methicillin-resistant Staphylococcus aureus infected in New Zealand rabbit osteomyelitis model assessed as improvement in extent of bone remodeling at 40 mg/kg, sc administered every 6 hrs for 4 weeks measured on week 6 postinfection by radiographic analysis; format: functional, organism-based; parameters: dose 40 mg/kg
Staphylococcus aureus [16] = assay: Antimicrobial activity against methicillin-resistant Staphylococcus aureus infected in New Zealand rabbit osteomyelitis model assessed as improvement in rate of bone reconstruction at 40 mg/kg, sc administered every 6 hrs for 4 weeks measured on week 8 postinfection by radiographic analysis; format: functional, organism-based; parameters: dose 40 mg/kg
Staphylococcus aureus [17] = assay: Antimicrobial activity against methicillin-resistant Staphylococcus aureus infected in New Zealand rabbit osteomyelitis model assessed as improvement in extent of bone remodeling at 40 mg/kg, sc administered every 6 hrs for 4 weeks measured on week 8 postinfection by radiographic analysis; format: functional, organism-based; parameters: dose 40 mg/kg
[18] = AUC in human at 500 mg, infusion up to 1 hr; conditions: plasma
[19] = Cmax in human at 500 mg, infusion up to 1 hr; conditions: in vivo
[20] = Drug level in tibial marrow of New Zealand rabbit at 40 mg/kg, sc administered every 6 hrs for 1 week measured after 3 hrs post last dose; conditions: read-out: Drug uptake
[21] = Drug level in tibial matrix of New Zealand rabbit at 40 mg/kg, sc administered every 6 hrs for 1 week measured after 3 hrs post last dose; conditions: read-out: Drug uptake
[22] = Plasma concentration in New Zealand rabbit osteomyelitis model at 40 mg/kg, sc administered every 6 hrs for 1 week measured after 3 hrs post last dose
[23] = Drug level in tibial marrow of New Zealand rabbit osteomyelitis model at 40 mg/kg, sc administered every 6 hrs for 1 week measured after 3 hrs post last dose; conditions: read-out: Drug uptake
[24] = Drug level in tibial matrix of New Zealand rabbit osteomyelitis model at 40 mg/kg, sc administered every 6 hrs for 1 week measured after 3 hrs post last dose; conditions: read-out: Drug uptake
Staphylococcus aureus [25] = assay: Antimicrobial activity against methicillin-resistant Staphylococcus aureus infected in New Zealand rabbit osteomyelitis model assessed as improvement in extent of bone remodeling at 40 mg/kg, sc administered every 6 hrs for 4 weeks measured on week 2 posttreatment by radiographic analysis
Staphylococcus aureus [26] = assay: Antimicrobial activity against methicillin-resistant Staphylococcus aureus infected in New Zealand rabbit osteomyelitis model assessed as improvement in rate of bone reconstruction at 40 mg/kg, sc administered every 6 hrs for 4 weeks measured on week 2 posttreatment by radiographic analysis

Work on Nc1nc(/C(=N/O)C(=O)N[C@@H]2C(=O)N3C(C(=O)O)=C(/C=C4\CCN([C@@H]5CCNC5)C4=O)CS[C@H]23)ns1 [CEFTOBIPROLE] yielded an MBC (Staphylococcus aureus [1]) of 6.25 µg/mL (≈ 11.7 µM), an MIC (Staphylococcus aureus [1]) of 0.39 µg/mL (≈ 0.73 µM) and a Cmax [2] of 23800 ng/mL. The concentration at 1 h [3] was 2700 ng/mL, the AUC at 1 h [4] was 65.3 µg·h/mL and the Cmax [5] was 83300 ng/mL. The AUC at 1 h [6] was 215 µg·h/mL, the Cmax [7] was 22100 ng/mL and the Cmax [8] was 58900 ng/mL. For the same molecule, the Activity (Oryctolagus cuniculus [9]) was 2.64 kg, the Activity (Oryctolagus cuniculus [10]) was 2.73 kg and the Activity (Oryctolagus cuniculus [11]) was 2.86 kg. The Activity (Oryctolagus cuniculus [12]) was 3.07 kg, the Cmax [13] was 76800 ng/mL and the Activity (Staphylococcus aureus [14]) was “Active”. For the same molecule, the Activity (Staphylococcus aureus [15]) was “Active”, the Activity (Staphylococcus aureus [16]) was “Active” and the Activity (Staphylococcus aureus [17]) was “Active”. It also gave an AUC at 1 h [18] of 116 µg·h/mL, a Cmax [19] of 34200 ng/mL and a concentration at 3 h [20] of 2400 ng/g. It also gave a concentration at 3 h [21] of 300 ng/g, a concentration at 3 h [22] of 4900 ng/mL and a concentration at 3 h [23] of 12800 ng/g. The concentration at 3 h [24] was 900 ng/g, the Activity (Staphylococcus aureus [25]) was “Active” and the Activity (Staphylococcus aureus [26]) was “Active”.
